This passage reports AC50 results from PubChem BioAssay AID463074 (Broad Institute, 2010).

Calls of active or inactive are those of the source.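 How the source made its calls: active means AC50 no more than tenfold above the top dose tested, or full inhibition at every dose with a flat fit (cut at about 19 µM in these data); inconclusive means flat curve fit with inhibition between 30% and 70%, or poor fit; inactive means AC50 more than tenfold above the top dose tested.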

The subject of the assay is HMLE_sh_eGFP viability, CellTiter-Glo luminescence, 72 h. The assay can be described thus: viability loss of HMLE_sh_eGFP cells – cell-based, luminescence, counter-screen for HMLE_sh_ECad selective toxicity project, dose response (AID 463074).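 Further: counterscreen control line to flag general toxicity for the HMLE_sh_ECad screen; potency for loss of viability as luminescence drops below DMSO wells.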 In general terms: A counterscreen serves to expose hits that act by an unwanted route or on another target.
`O=C(Nc1ccc(Nc2ccccc2)cc1)c1cc([N+](=O)[O-])ccc1Cl`: the AC50 was 10.6 µM. For the molecule `COc1ccc(C(=O)/C=C/c2ccc(OC)c(Cn3nnc4ccccc43)c2)cc1`, the concentration at half-maximal activity (AC50) is 6.82 µM. The same measure for `Cc1ccc(N/N=C/c2ccncc2)cc1`: 7.44 µM; for `CC(C)Oc1cccc(C(=O)NC(=S)Nc2ccccc2N2CCOCC2)c1`: 13.9 µM. The same measure for `CC(C)(C)c1nc(N2CCN(C(=O)c3ccco3)CC2)c2nnn(Cc3ccccc3Cl)c2n1`: 8.78 µM.

As to `Clc1ccc(-c2nnnn2-c2ccc(Cl)c(Cl)c2)cc1Cl`, the AC50 was 15.2 µM. Next, `Cc1cc(C(=O)NNc2ccc(F)cc2F)no1`: 1.6 µM; `CCOC(=O)C1CCN(c2ncnc3c2c(-c2ccccc2)cn3-c2ccccc2)CC1`: 7.43 µM; `Cc1ccc(NC(=O)c2nc(S(=O)(=O)Cc3ccccc3C)ncc2Cl)cc1C`: 7.64 µM. For the molecule `CCOC(=O)c1cc(-c2cccs2)nc2c1c(C)nn2-c1ccccn1`, the AC50 was 11.8 µM. Next, `CC(NCC(O)COCCC12CC3CC(CC(C3)C1)C2)c1ccccc1` (stereo unspecified): 3.32 µM; `CCOC(=O)/C=C/C(=O)Nc1cccc([N+](=O)[O-])c1`: 8.97 µM; `CC(=O)Nc1ccc(-c2csc(NC(=O)Cc3cccc(F)c3)n2)cc1`: 5.64 µM. Consider `O=C(N/C=N/OCc1ccc(Cl)cc1Cl)NOCc1ncc(C(F)(F)F)cc1Cl`, for which the AC50 is 5.04 µM. With `O=C(CNC(=O)C(c1ccccc1)c1ccccc1)N/N=C/c1ccc(O)cc1O`, the AC50 is 1.88 µM.

Turning to `CCOc1ccc(C(=O)CCC(=O)N2CCN(c3ccc(O)cc3)CC2)cc1`, the half-maximal activity concentration (AC50) is 2.49 µM.

`Cc1ccc(S(=O)(=O)Nc2ccc(-c3nnc(SCc4ccccc4Cl)o3)cc2)cc1`: the concentration at half-maximal activity (AC50) was 5.7 µM.

Turning to `Cc1ccc(CNc2nc(-c3cccs3)nc3ccccc23)cc1`, the AC50 was 8.41 µM. On to `O=C(NC(=S)Nc1ccc(N2CCCCC2)c(Cl)c1)c1ccc2c(c1)OCCO2`, for which the concentration at half-maximal activity (AC50) was 3.58 µM. Turning to `CCOc1ccccc1CNc1ncnc2ccc(-c3c(C)noc3C)cc12`, the AC50 is 6.05 µM. As for `CNC(=O)NC(=O)C(C)OC(=O)c1oc2ccccc2c1CSc1ccc(Cl)cc1` (stereo unspecified), the half-maximal activity concentration (AC50) was 19.3 µM.

In the case of `CCCc1nc(NC2CCCCC2)c(C#N)c2c1COC(C)(C)C2`, the AC50 is 7.68 µM.

Turning to `COc1ccc(C2=Nn3c(nnc3-c3ccccc3F)SC2)cc1OC1CCCC1`, the AC50 is 5.54 µM. On to `C/C(=C\c1ccc(C(=O)O)cc1)c1ccc2c(c1)C(C)(C)CCC2(C)C`, for which the half-maximal activity concentration (AC50) was 3.7 µM.

On to `Cc1cccc(C)c1OCc1cc(C(=O)N2CC3C[C@@H]4CC2C[C@H](C3)C4)no1`, for which the half-maximal activity concentration (AC50) is 2.69 µM. Turning to `CC1=[N+](C)c2ccc3ccccc3c2C1(C)C`, the AC50 is > 19.5 µM (inactive). `CN(C)c1ccc(/C=N/NC(=O)C(=O)/C=C2\NC3(CCCC3)Cc3ccccc32)cc1`: the AC50 is 6.5 µM. Next, `COc1ccc(NC(=O)c2cc3ccccc3cc2O)cc1`: 8.3 µM; `O=c1c2cc(NC(=S)NCCCN3CCC(Cc4ccccc4)CC3)ccc2nc2n1CCCCC2`: 6.21 µM; `O=C(Nc1ccccc1)Nc1ccc(O)c2ccccc12`: 3.94 µM.

With `CCC(C)NCCOc1ccc(C(C)(C)c2ccccc2)cc1` (stereo unspecified), the half-maximal activity concentration (AC50) was 5.92 µM. `CCC(=O)Nc1nc(C)c(-c2csc(Nc3cccc(O)c3)n2)s1`: the half-maximal activity concentration (AC50) is 0.384 µM. Next, `O=C(CN(c1cccc(C(F)(F)F)c1)S(=O)(=O)c1ccc(Cl)c([N+](=O)[O-])c1)NCc1ccccc1Cl`: 2.6 µM; `C=C[C@@H]1c2cccc(C)c2N(S(=O)(=O)c2ccc(C)cc2)[C@H](c2ccc(OC(C)=O)cc2)C1(C#N)C#N`: 6.71 µM; `CC(=O)[C@@]1(O)C(C)CC2C3C=C(C)C4=Cc5c(cnn5-c5ccccc5)C[C@]4(C)C3C(O)C[C@@]21C` (stereo partly specified): 4.03 µM. The same measure for `S=c1[nH]nc(-c2ccccc2)n1/N=C/c1ccc(-c2ccccc2Cl)o1`: 5.93 µM; for `O=C(NNC1=C(C(=O)C(F)(F)F)CCC1)c1cccc(Cl)c1`: 3.64 µM. The same measure for `Fc1ccc2[nH]c3c(N4CCc5ccccc5C4)ncnc3c2c1`: 7.36 µM. `COc1cc(C2NCC(c3ccc(Cl)cc3Cl)c3c2[nH]c2ccccc32)cc(OC)c1OC` (stereo unspecified): the AC50 was 18.7 µM. Next, `Oc1nc(Nc2cccc(Cl)c2)sc1/C=C1\C=Nc2ccccc21`: 3.78 µM; `COc1ccc(-c2sc3ccccc3c2C#CC2(O)CCCCC2)cc1`: 5.38 µM. `COC(=O)c1ccc(/C=C/c2c(-c3ccc(OC)cc3)sc3ccccc23)cc1`: the concentration at half-maximal activity (AC50) is 7.05 µM. The same measure for `Cc1ccc(S[C@@H](CCN2CC[C@H](C(C)(C)C)CCC2=O)c2ccccc2)cc1`: 3.57 µM.

As for `O=C(N/N=C/c1ccc2c(c1)OCO2)c1ccc(COCC(F)(F)C(F)F)cc1`, the AC50 is 1.64 µM. Next, `O=C(CCCN1C(=O)/C(=C/c2ccccc2)SC1=S)NCCCn1ccnc1`: > 19.5 µM (inactive). Next, `Cn1nnnc1Sc1ncnc2scc(Br)c12`: 6.78 µM.

Take `C[C@H](CO)N1C[C@H](C)[C@H](CN(C)Cc2ccc(-c3ccccc3)cc2)Oc2ccc(NS(=O)(=O)c3ccccc3)cc2CC1=O`: the AC50 was 4.74 µM. Next, `CC(C)Cn1c(O)c(/C=C2\C=NN=C2c2ccccc2)sc1=S`: 3.54 µM; `Cc1ccc(NC(=O)/C=C/c2ccc([N+](=O)[O-])s2)c(C)c1`: 2.3 µM; `O=C(c1ccc(CSc2ccccc2)cc1)N1CCN(c2ccccc2)CC1`: 9.49 µM. For the molecule `COc1ccc(-c2nc(N)nc(C)c2Oc2ccccc2Br)c(O)c1`, the AC50 was 5.08 µM. Regarding `FC(F)(F)c1cc(CCN2CCNC[C@H]2Cc2cccc3ccccc23)cc(C(F)(F)F)c1`, the AC50 was 3.53 µM. `COc1cccc(/C=N/NC(=O)c2ccc(-c3ccccc3)cc2)c1O`: the AC50 is 3.33 µM.

Regarding `COc1ccc(/C=C/C(=O)c2ccncc2)c2ccccc12`, the concentration at half-maximal activity (AC50) was 10 µM. The same measure for `CC(=O)c1c(C)oc2c1C(=O)c1ccccc1C2=O`: 4.4 µM. Next, `CC(C)=CCc1c(O)cc2c(c1O)C(=O)CC(c1ccc(O)cc1)O2` (stereo unspecified): 3.74 µM; `Cc1ccc(-c2cc(NC(=O)CCl)n(-c3ccccc3)n2)cc1`: 7.29 µM; `COc1cc(Nc2ccc(C)cc2)c([N+](=O)[O-])nc1[N+](=O)[O-]`: 5.74 µM. Next, `FC(F)(F)c1cccc(NC(=S)N(CCCN2CCCC2)Cc2cccn2Cc2ccc(Cl)cc2)c1`: 3.51 µM; `Cc1ccc(NC(=S)N(CCCN2CCCC2)Cc2cccn2Cc2ccc(Cl)cc2)cc1Cl`: 4.92 µM. `COc1ccc(-c2nc3cnccn3c2NC2CCCCC2)cc1-c1cccc(Cl)c1`: the AC50 is 6.62 µM.

`O=C(Nc1cc(S(=O)(=O)Nc2ccc(Cl)cc2)ccc1N1CCCCC1)c1ccc(F)cc1Cl`: the AC50 is 5.37 µM. Consider `CCCSc1nsc(NC(=O)Nc2ccc(F)cc2F)n1`, for which the half-maximal activity concentration (AC50) is 4.87 µM. The same measure for `CC(C)CCn1c(N)c(C(=O)NCc2cccs2)c2nc3ccccc3nc21`: 7.25 µM; for `Cc1sc(NC(=O)C2CCCCC2)c(C#N)c1-c1ccccc1`: > 19.5 µM (inactive); for `Cc1ccnc(Nc2nc(-c3ccc(O)cc3O)cs2)c1`: 14.9 µM. On to `CCc1c(C2(O)CCCCC2)[nH]c2cc(C(F)(F)F)ccc12`, for which the AC50 is 3.15 µM. Next, `CCCCOc1ccc(C(=O)C(CN2CCOCC2)c2ccccc2)cc1` (stereo unspecified): 6.76 µM; `Cc1cc(C)cc(NS(=O)(=O)c2ccc(Oc3ncc(C(F)(F)F)cc3Cl)cc2)c1`: 4.3 µM. Next, `O=C(NCCc1c[nH]c2ccccc12)C(=O)c1c[nH]c2ccccc12`: 6.75 µM; `Cc1cc(-c2ccccc2)n(-c2cc(N/N=C/c3ccccc3O)ncn2)n1`: 0.669 µM; `Cc1ccc(NC(=S)Nc2ccc(C(C)C)cc2)cc1S(=O)(=O)N1CCCCCC1`: 3.82 µM. Next, `Cc1nn(Cc2c(Cl)cccc2Cl)c(C)c1NC(=O)c1cn(-c2ccccc2)nc1-c1ccccc1`: 1.19 µM; `COc1ccc(CCC(C)NCC2CCCCC2)cc1` (stereo unspecified): 1.66 µM. Regarding `CN1CCc2c(sc(NC(=O)c3ccc(S(=O)(=O)N4CCc5ccccc54)cc3)c2C(N)=O)C1`, the half-maximal activity concentration (AC50) was 5.01 µM. Next, `O=[N+]([O-])c1ccc(COc2ccc(-c3[nH]ncc3-c3ccccc3)c(O)c2)cc1`: 8.38 µM; `Cc1ccc(CCC(=O)Nc2ncc(Cc3cc(Cl)ccc3Cl)s2)o1`: 13.6 µM; `COc1cc(S(=O)(=O)N2CCCCCC2)c(OC)cc1Br`: 2.55 µM.

As to `COc1cc(C[C@H](C)[C@H](C)Cc2ccc3c(c2)OCO3)ccc1O`, the half-maximal activity concentration (AC50) is 6.66 µM. Next, `Cc1ccc(S(=O)(=O)Nc2ccc(NC(=O)Nc3cccc(C(F)(F)F)c3)cc2)cc1`: 2.51 µM; `Oc1cccc(C(O)CNCc2ccc(OCc3ccc(Cl)cc3Cl)cc2)c1` (stereo unspecified): 7.09 µM. The same measure for `CCCC[C@@H](CN[C@H](C)CNC)NCC1CCC(C(C)(C)C)CC1` (stereo partly specified): 6.37 µM; for `O=C(Cc1ccc(F)cc1)Nc1nnc(SCC(=O)N2CCCCC2)s1`: > 19.5 µM (inactive). The same measure for `COc1ccc(OC)c(C(=O)/C=C/c2ccccc2C(F)(F)F)c1`: 6.67 µM; for `Cc1ccc(/C=C/C(=O)NCC2COc3ccccc3O2)o1` (stereo unspecified): > 19.5 µM (inactive); for `CC(C)c1cc(-c2cc(-c3ccccc3)on2)nc(NC2CCCC2)n1`: 7.45 µM. For `CC(C)Cc1nc2oc3c(Cl)ncnc3c2c2c1CCC2`, the concentration at half-maximal activity (AC50) was 3.72 µM.

Consider `O=C(NNc1ccccc1)C(=O)N1CCCCC1`, for which the AC50 is 3.16 µM.

Consider `Cn1c2ccccc2c(=O)c2cc(C#Cc3ccccn3)ccc21`, for which the AC50 was > 19.5 µM (inactive). Consider `O=C(Nc1nccs1)c1ccc(COc2ccccc2Cl)o1`, for which the concentration at half-maximal activity (AC50) was 10.8 µM. The same measure for `OC(CNCC(c1ccc(Cl)cc1Cl)c1c[nH]c2ccccc12)c1ccccc1` (stereo unspecified): 2.88 µM. The same measure for `CCCc1ccc(C(=O)NNc2ccc(F)cc2)cc1`: 1.99 µM; for `CCCCCCSc1cc(-c2nc3cc(C)ccn3c2NCCCC)ccc1OC`: 8.88 µM. Next, `O=C(Nc1ccc(F)cc1)c1nc(S(=O)(=O)Cc2ccccc2)ncc1Cl`: 7.15 µM; `COC(=O)c1ccccc1NC(=O)c1nc(S(=O)(=O)Cc2ccccc2)ncc1Cl`: 3.25 µM; `O=C(NNc1ccc(Cl)cc1)c1cccs1`: 1.58 µM.

By AC50 is commonly meant the concentration at which the activity in the assay is half-maximal.
